Laboratory results taken from patent publication EP4678638A1, “NEW E3 UBIQUITIN LIGASE LIGAND, PROTEIN DEGRADATION AGENT AND USE THEREOF” (priority 2023, dated 2024).
Where two headings read alike, the source gives them in different places.

Legend:
MV-4-11 = assay: CCK-8 proliferation, MV-4-11; type: cell-based, Human; settings: Homo sapiens, MV4-11
Experimental: The tumor cells used herein were cultured in a cell culture medium listed in table A1 at 37°C in an incubator with 5% CO2. Prior to experimentation, all cell lines used were correctly identified by STR profiling, and tested negative for mycoplasma contamination using a mycoplasma detection kit through routine screenings. Table A1. Tumor cells and cell culture medium used in the present disclosure
IC50 values of the compounds of the present disclosure (including the compounds in Table 1, and compounds of examples) were measured using the Meilun Cell Counting Kit-8 kit from Dalian Meilun Biotech Co., Ltd. Assay details are as follows: tumor cells were seeded in a 96-well plate at a density listed in Table A2. After 24h, 100 µL of the inoculated cells were treated with 0.5µL of the compounds of the present disclosure (including the compounds in Tables 1 and 2, and compounds of examples) at 10 different successively decreasing concentrations (starting at the highest concentration of 10µM; 5-fold serial dilutions). After the cells were treated with the compounds of the present disclosure for a period of time, the cell viability detection reagent was added to the culture medium for cell viability assessment according to the instructions provided with the CCK-8 kit. […] The growth inhibition of the compounds of the present disclosure on cells was plotted by Prism Graphpad software, and the IC50 values of the compounds of the present disclosure were calculated therefrom. […] Seeding protocol and treatment time for tumor cells

MCF7 = assay: CCK-8 proliferation, MCF7 (MCF-7); type: cell-based; settings: Homo sapiens, MCF7; CCK-8; read-out: Inhibitory activity (IC50) on tumor cell proliferation, MCF-7
How it was run: (§1)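 Cells seeded, then after 24 h treated with 10 concentrations (top 10 µM, 5-fold serial dilution) for a line-specific time at 37°C, 5% CO2. Viability read by CCK-8; IC50 fitted from growth-inhibition curves.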

MM.1S = assay: CCK-8 proliferation, MM.1S; type: cell-based; settings: Homo sapiens, MM1.S; CCK-8; 72 hours; read-out: Inhibitory activity (IC50) on tumor cell proliferation, MM1S
How it was run: as §1

WEE1 = target: T1, WEE1 (Homo sapiens, UniProt P30291+Q96SW2); assay: Western blot degradation of WEE1 (hPBMC); type: cell-based; settings: Table D16
T1 construct: evaluate the effects of the compounds of the present disclosure on the expression of target proteins in cells; endogenous in cells; host or cells: hPBMC
T1 sequence (P30291 whole entry): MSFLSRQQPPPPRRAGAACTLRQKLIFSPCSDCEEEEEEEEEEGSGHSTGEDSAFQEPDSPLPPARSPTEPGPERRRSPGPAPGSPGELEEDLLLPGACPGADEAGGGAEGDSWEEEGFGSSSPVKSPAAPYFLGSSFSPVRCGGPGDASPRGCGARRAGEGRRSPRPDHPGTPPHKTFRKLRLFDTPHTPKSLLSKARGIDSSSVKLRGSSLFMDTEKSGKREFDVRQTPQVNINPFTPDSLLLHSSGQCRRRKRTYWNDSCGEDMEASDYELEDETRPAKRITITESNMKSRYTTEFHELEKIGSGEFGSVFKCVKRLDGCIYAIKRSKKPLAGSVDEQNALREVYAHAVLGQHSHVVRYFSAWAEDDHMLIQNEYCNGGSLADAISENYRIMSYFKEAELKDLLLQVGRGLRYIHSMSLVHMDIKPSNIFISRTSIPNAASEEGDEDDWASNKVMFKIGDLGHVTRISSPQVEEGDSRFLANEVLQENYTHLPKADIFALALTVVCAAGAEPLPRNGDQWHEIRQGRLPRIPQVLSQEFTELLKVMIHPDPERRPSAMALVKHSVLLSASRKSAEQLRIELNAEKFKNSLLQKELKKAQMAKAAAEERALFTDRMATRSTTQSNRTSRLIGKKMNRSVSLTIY
T1 sequence (Q96SW2 whole entry): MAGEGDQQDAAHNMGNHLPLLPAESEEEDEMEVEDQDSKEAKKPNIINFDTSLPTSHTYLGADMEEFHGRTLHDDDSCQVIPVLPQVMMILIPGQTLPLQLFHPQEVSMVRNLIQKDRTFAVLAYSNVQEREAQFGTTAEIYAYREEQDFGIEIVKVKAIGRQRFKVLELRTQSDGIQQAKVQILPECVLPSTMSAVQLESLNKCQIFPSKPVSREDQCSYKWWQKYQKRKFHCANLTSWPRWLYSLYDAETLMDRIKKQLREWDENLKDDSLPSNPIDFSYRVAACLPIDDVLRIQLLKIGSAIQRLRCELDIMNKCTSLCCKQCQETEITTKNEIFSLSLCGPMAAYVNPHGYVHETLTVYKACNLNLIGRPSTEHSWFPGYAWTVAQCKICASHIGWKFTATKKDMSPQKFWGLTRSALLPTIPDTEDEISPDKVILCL
T1 sequence (Q16531 whole entry partner): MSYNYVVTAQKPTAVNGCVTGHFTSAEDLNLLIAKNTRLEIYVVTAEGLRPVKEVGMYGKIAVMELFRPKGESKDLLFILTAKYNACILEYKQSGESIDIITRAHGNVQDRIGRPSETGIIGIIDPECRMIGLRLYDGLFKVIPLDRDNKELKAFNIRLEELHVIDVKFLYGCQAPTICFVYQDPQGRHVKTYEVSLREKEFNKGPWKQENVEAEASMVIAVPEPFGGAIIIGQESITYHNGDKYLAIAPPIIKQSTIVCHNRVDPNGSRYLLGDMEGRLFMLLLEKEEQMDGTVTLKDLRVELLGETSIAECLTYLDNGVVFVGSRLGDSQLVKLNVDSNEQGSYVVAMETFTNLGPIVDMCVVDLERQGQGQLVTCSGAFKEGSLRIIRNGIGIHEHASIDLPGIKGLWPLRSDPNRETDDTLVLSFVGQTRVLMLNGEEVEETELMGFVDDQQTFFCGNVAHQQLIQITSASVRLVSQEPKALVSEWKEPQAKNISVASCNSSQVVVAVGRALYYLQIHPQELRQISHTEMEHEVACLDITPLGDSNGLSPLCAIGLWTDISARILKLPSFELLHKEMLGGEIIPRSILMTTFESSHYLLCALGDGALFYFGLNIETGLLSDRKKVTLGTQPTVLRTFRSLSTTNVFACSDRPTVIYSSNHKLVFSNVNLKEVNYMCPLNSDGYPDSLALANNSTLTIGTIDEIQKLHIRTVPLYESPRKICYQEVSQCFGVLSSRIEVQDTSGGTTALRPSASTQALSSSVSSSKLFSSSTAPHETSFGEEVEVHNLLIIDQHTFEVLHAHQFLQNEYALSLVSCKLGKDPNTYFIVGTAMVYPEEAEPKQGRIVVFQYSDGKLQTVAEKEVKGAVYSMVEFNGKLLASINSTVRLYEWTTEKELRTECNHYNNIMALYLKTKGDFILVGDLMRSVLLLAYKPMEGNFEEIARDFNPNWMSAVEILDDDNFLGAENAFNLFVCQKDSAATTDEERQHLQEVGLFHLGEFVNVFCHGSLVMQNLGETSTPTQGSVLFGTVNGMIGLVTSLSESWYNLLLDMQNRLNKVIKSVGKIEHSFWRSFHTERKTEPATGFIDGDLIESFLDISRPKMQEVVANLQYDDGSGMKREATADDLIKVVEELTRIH
How it was run: (§2)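 Quantification by ImageJ densitometry of Western blot bands: DC50 is the fitted concentration halving band intensity relative to DMSO. Percent remaining uses internal-control normalization, and degradation rate is its complement.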

IKZF1 = target: T2, IKZF1 (Homo sapiens, UniProt Q13422+Q96SW2); assay: Western blot degradation of IKZF1 (hPBMC); type: cell-based; settings: Table D16
T2 construct: evaluate the effects of the compounds of the present disclosure on the expression of target proteins in cells; endogenous in cells; host or cells: hPBMC
How it was run: as §2

IKZF2 = target: T3, IKZF2 (Homo sapiens, UniProt Q96SW2+Q9UKS7); assay: Western blot degradation of IKZF2 (hPBMC); type: cell-based; settings: Table D16
T3 construct: evaluate the effects of the compounds of the present disclosure on the expression of target proteins in cells; endogenous in cells; host or cells: hPBMC
T3 sequence (Q9UKS7 whole entry): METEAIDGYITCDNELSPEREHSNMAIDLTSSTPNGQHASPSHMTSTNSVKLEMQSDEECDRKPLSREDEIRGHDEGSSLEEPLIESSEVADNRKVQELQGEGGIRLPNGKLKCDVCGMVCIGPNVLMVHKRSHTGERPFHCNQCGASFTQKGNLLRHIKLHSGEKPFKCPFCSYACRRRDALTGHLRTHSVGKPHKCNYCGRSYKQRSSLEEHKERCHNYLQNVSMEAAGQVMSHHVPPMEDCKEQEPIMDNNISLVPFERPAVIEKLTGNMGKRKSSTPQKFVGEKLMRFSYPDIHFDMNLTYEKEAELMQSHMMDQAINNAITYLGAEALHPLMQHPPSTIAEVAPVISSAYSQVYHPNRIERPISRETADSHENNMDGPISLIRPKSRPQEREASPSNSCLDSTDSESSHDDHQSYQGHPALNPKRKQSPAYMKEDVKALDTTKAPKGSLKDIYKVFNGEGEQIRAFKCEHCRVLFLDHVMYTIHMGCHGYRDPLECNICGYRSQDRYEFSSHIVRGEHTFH
T3 sequence (Q96SW2 whole entry): as the sequence (Q96SW2 whole entry) above
T3 sequence (Q16531 whole entry partner): as the sequence (Q16531 whole entry partner) above
How it was run: as §2

IKZF3 = target: T4, IKZF3 (Homo sapiens, UniProt Q96SW2+Q9UKT9); assay: Western blot degradation of IKZF3 (hPBMC); type: cell-based; settings: Table D16
T4 construct: evaluate the effects of the compounds of the present disclosure on the expression of target proteins in cells; endogenous in cells; host or cells: hPBMC
T4 sequence (Q9UKT9 whole entry): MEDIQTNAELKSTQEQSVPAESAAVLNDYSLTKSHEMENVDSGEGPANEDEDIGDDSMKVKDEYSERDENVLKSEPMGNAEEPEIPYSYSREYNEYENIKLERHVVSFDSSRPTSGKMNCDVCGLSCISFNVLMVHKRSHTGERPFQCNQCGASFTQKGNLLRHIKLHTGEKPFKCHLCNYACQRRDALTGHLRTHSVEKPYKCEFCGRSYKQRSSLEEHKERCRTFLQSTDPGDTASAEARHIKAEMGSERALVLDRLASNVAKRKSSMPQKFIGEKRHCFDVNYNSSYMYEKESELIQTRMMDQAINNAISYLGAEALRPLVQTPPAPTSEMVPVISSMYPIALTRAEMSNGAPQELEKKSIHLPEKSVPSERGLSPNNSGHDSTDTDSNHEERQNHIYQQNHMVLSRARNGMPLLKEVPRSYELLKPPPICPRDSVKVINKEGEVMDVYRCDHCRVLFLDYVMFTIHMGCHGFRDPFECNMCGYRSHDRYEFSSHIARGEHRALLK
T4 sequence (Q96SW2 whole entry): as the sequence (Q96SW2 whole entry) above
T4 sequence (Q16531 whole entry partner): as the sequence (Q16531 whole entry partner) above
How it was run: as §2

CK1a = target: T5, CK1a (Homo sapiens, UniProt P48729+Q96SW2); assay: Western blot degradation of CK1a (hPBMC); type: cell-based; settings: Table D16
T5 construct: evaluate the effects of the compounds of the present disclosure on the expression of target proteins in cells; endogenous in cells; host or cells: hPBMC
T5 sequence (P48729 whole entry): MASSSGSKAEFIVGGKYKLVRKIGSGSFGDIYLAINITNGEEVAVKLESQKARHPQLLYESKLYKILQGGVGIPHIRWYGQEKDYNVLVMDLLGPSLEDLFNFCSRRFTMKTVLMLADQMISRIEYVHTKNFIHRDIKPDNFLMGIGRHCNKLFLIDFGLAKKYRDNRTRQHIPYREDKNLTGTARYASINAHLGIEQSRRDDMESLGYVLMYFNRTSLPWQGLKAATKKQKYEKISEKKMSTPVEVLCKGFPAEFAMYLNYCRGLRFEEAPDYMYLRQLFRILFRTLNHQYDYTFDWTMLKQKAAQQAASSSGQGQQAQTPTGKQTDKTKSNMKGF
T5 sequence (Q96SW2 whole entry): as the sequence (Q96SW2 whole entry) above
T5 sequence (Q16531 whole entry partner): as the sequence (Q16531 whole entry partner) above
How it was run: as §2

GSPT1 = target: T6, GSPT1 (Homo sapiens, UniProt P15170+Q96SW2); assay: Western blot degradation of GSPT1 (hPBMC); type: cell-based; settings: Table D16
T6 construct: evaluate the effects of the compounds of the present disclosure on the expression of target proteins in cells; endogenous in cells; host or cells: hPBMC
T6 sequence (P15170 whole entry): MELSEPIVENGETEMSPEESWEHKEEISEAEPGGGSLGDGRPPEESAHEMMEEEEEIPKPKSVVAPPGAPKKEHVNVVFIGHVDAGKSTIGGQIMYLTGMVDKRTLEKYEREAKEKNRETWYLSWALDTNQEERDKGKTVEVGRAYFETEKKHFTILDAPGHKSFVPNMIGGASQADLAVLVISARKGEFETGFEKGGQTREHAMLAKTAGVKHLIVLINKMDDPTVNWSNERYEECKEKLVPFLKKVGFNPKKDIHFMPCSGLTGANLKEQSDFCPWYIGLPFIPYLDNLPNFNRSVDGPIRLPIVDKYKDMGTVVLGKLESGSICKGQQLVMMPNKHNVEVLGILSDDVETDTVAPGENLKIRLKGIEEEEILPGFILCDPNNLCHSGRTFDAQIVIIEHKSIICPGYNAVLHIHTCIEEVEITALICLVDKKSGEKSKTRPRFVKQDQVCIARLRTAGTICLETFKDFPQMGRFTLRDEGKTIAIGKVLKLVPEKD
T6 sequence (Q96SW2 whole entry): as the sequence (Q96SW2 whole entry) above
T6 sequence (Q16531 whole entry partner): as the sequence (Q16531 whole entry partner) above
How it was run: as §2

[1] = Table B10, compounds designed based on the IRAK4 inhibitors, MV-4-11 cells, read-out: Inhibitory activity (IC50, nM) on tumor cell proliferation, MV-4-11
[2] = CCK-8, 72 or 96 hours, read-out: Inhibitory activity (IC50) on tumor cell proliferation, MV-4-11

Compound: O=C1CCN(c2ccc(CN3CCC(n4cc(NC(=O)c5cnn6ccc(N7CCOCC7)nc56)c(C(F)F)n4)CC3)cc2F)C(=O)N1 [GT-03814, N-(3-(difluoromethyl)-1-(1-(4-(2,4-dioxotetrahydropyrimidin-1(2H)-yl)-3-fluorobenzyl)piperidin-4-yl)-1H-pyrazol-4-yl)-5-morpholinopyrazolo[1,5-a]pyrimidine-3-carboxamide]
- IC50 (MV-4-11; [1]): 100 to 500 nM

Compound: Cc1cc(-c2nc(C(=O)Nc3cc4oc(N5CCN(Cc6ccc(C7CCC(=O)NC7=O)cc6)CC5)nc4nc3N3CC[C@@H](O)C3)co2)ccn1 (stereo partly drawn) [GT-03846, N-(2-(4-(4-(2,6-dioxopiperidin-3-yl)benzyl)piperazin-1-yl)-5-((R)-3-hydroxypyrrolidin-1-yl)oxazolo[4,5-b]pyridin-6-yl)-2-(2-methylpyridin-4-yl)oxazole-4-carboxamide]
- IC50 (MV-4-11; [1]): 50 to 100 nM

Compound: Cc1cc(-c2nc(C(=O)Nc3cc4oc(N5CCN(Cc6ccc(C7CCC(=O)NC7=O)c(F)c6)CC5)nc4nc3N3CC[C@@H](O)C3)co2)ccn1 (stereo partly drawn) [GT-03847, N-(2-(4-(4-(2,6-dioxopiperidin-3-yl)-3-fluorobenzyl)piperazin-1-yl)-5-((R)-3-hydroxypyrrolidin-1-yl)oxazolo[4,5-b]pyridin-6-yl)-2-(2-methylpyridin-4-yl)oxazole-4-carboxamide]
- IC50 (MV-4-11; [1]): 50 to 100 nM

Compound: Nc1nc(Nc2ccc(S(=O)(=O)N3CCN(Cc4cccc(N5CCC(=O)NC5=O)c4)CC3)cc2)nn1C(=O)c1c(F)cccc1F [GT-06752, 1-(3-((4-((4-((5-amino-1-(2,6-difluorobenzoyl)-1H-1,2,4-triazol-3-yl)amino)phenyl)sulfonyl)piperazin-1-yl)methyl)phenyl)dihydropyrimidine-2,4(1H,3H)-dione]
- IC50 (MV-4-11; [2]): 500 to 1000 nM

Compound: Nc1nc(Nc2ccc(S(=O)(=O)N3CCN(Cc4ccc(N5CCC(=O)NC5=O)cn4)CC3)cc2)nn1C(=O)c1c(F)cccc1F [GT-06753, 1-(6-((4-((4-((5-amino-1-(2,6-difluorobenzoyl)-1H-1,2,4-triazol-3-yl)amino)phenyl)sulfonyl)piperazin-1-yl)methyl)pyridin-3-yl)dihydropyrimidine-2,4(1H,3H)-dione]
- IC50 (MV-4-11; [2]): 100 to 500 nM

Compound: Cc1cc(S(=O)(=O)N2CCN(Cc3ccc(C4CCC(=O)NC4=O)cc3)CC2)ccc1Nc1ncc(Br)c(Nc2cccc(F)c2C(N)=O)n1 (stereo not shown) [GT-06830, 2-((5-bromo-2-((4-((4-(4-(2,6-dioxopiperidin-3-yl)benzyl)piperazin-1-yl)sulfonyl)-2-methylphenyl)amino)pyrimidin-4-yl)amino)-6-fluorobenzamide]
- IC50 (MV-4-11; [2]): 100 to 500 nM

Compound: Cc1cc(S(=O)(=O)N2CCN(Cc3ccc(N4CCC(=O)NC4=O)cn3)CC2)ccc1Nc1ncc(Br)c(Nc2cccc(F)c2C(N)=O)n1 [GT-06833, 2-((5-bromo-2-((4-((4-((5-(2,4-dioxotetrahydropyrimidin-1(2H)-yl)pyridin-2-yl)methyl)piperazin-1-yl)sulfonyl)-2-methylphenyl)amino)pyrimidin-4-yl)amino)-6-fluorobenzamide]
- IC50 (MV-4-11; [2]): 50 to 100 nM

Compound: Cc1ccsc1C(=O)n1nc(Nc2ccc(S(=O)(=O)N3CCN(Cc4ccc(C5CCC(=O)NC5=O)cc4)CC3)cc2)nc1N (stereo not shown) [GT-06854, 3-(4-((4-((4-((5-amino-1-(3-methylthiophene-2-carbonyl)-1H-1,2,4-triazol-3-yl)amino)phenyl)sulfonyl)piperazin-1-yl)methyl)phenyl)piperidine-2,6-dione]
- IC50 (MV-4-11; [2]): 100 to 500 nM

Compound: Cc1ccsc1C(=O)n1nc(Nc2ccc(S(=O)(=O)N3CCN(Cc4ccc(C5CCC(=O)NC5=O)c(F)c4)CC3)cc2)nc1N (stereo not shown) [GT-06855, 3-(4-((4-((4-((5-amino-1-(3-methylthiophene-2-carbonyl)-1H-1,2,4-triazol-3-yl)amino)phenyl)sulfonyl)piperazin-1-yl)methyl)-2-fluorophenyl)piperidine-2,6-dione]
- IC50 (MV-4-11; [2]): 500 to 1000 nM

Compound: Cc1ccsc1C(=O)n1nc(Nc2ccc(S(=O)(=O)N3CCN(Cc4ccc(N5CCC(=O)NC5=O)cc4F)CC3)cc2)nc1N [GT-06858, 1-(4-((4-((4-((5-amino-1-(3-methylthiophene-2-carbonyl)-1H-1,2,4-triazol-3-yl)amino)phenyl)sulfonyl)piperazin-1-yl)methyl)-3-fluorophenyl)dihydropyrimidine-2,4(1H,3H)-dione]
- IC50 (MV-4-11; [2]): 100 to 500 nM

Compound: Cc1ccsc1C(=O)n1nc(Nc2ccc(S(=O)(=O)N3CCN(Cc4cccc(N5CCC(=O)NC5=O)c4)CC3)cc2)nc1N [GT-06859, 1-(3-((4-((4-((5-amino-1-(3-methylthiophene-2-carbonyl)-1H-1,2,4-triazol-3-yl)amino)phenyl)sulfonyl)piperazin-1-yl)methyl)phenyl)dihydropyrimidine-2,4(1H,3H)-dione]
- IC50 (MV-4-11; [2]): 100 to 500 nM

Compound: O=C1CCN(c2cncc(CCl)c2)C(=O)N1 [GT-07047, 1-(5-(Chloromethyl)pyridin-3-yl)dihydropyrimidine-2,4(1H,3H)-dione]
- IC50 (MCF7): 1000 to 5000 nM
- IC50 (MM.1S): 1000 to 5000 nM
- Degradation of substrate protein WEE1 (substrate protein remaining %) (WEE1): B (B is defined as substrate protein remaining % > 80%)
- Degradation of substrate protein IKZF1 (substrate protein remaining %) (IKZF1): A (A is defined as 0% ≤ substrate protein remaining % ≤ 80%)
- Degradation of substrate protein IKZF2 (substrate protein remaining %) (IKZF2): A (A is defined as 0% ≤ substrate protein remaining % ≤ 80%)
- Degradation of substrate protein IKZF3 (substrate protein remaining %) (IKZF3): A (A is defined as 0% ≤ substrate protein remaining % ≤ 80%)
- Degradation of substrate protein CKla (substrate protein remaining %) (CK1a): A (A is defined as 0% ≤ substrate protein remaining % ≤ 80%)
- Degradation of substrate protein GSPT1 (substrate protein remaining %) (GSPT1): B (B is defined as substrate protein remaining % > 80%)

Compound: O=C1CCC(c2cc(CO)ccn2)C(=O)N1 (stereo not shown) [GT-07050, 3-(4-(Hydroxymethyl)pyridin-2-yl)piperidine-2,6-dione]
- IC50 (MCF7): 1000 to 5000 nM
- IC50 (MM.1S): 1000 to 5000 nM
- Degradation of substrate protein WEE1 (substrate protein remaining %) (WEE1): B (B is defined as substrate protein remaining % > 80%)
- Degradation of substrate protein IKZF1 (substrate protein remaining %) (IKZF1): A (A is defined as 0% ≤ substrate protein remaining % ≤ 80%)
- Degradation of substrate protein IKZF2 (substrate protein remaining %) (IKZF2): B (B is defined as substrate protein remaining % > 80%)
- Degradation of substrate protein IKZF3 (substrate protein remaining %) (IKZF3): A (A is defined as 0% ≤ substrate protein remaining % ≤ 80%)
- Degradation of substrate protein CKla (substrate protein remaining %) (CK1a): A (A is defined as 0% ≤ substrate protein remaining % ≤ 80%)
- Degradation of substrate protein GSPT1 (substrate protein remaining %) (GSPT1): A (A is defined as 0% ≤ substrate protein remaining % ≤ 80%)

Compound: O=C1CCC(c2ccc(CO)nn2)C(=O)N1 (stereo not shown) [GT-07636, 3-(6-(Hydroxymethyl)pyridazin-3-yl)piperidine-2,6-dione]
- IC50 (MM.1S): 1000 to 5000 nM
- Degradation of substrate protein WEE1 (substrate protein remaining %) (WEE1): B (B is defined as substrate protein remaining % > 80%)
- Degradation of substrate protein IKZF1 (substrate protein remaining %) (IKZF1): A (A is defined as 0% ≤ substrate protein remaining % ≤ 80%)
- Degradation of substrate protein IKZF2 (substrate protein remaining %) (IKZF2): A (A is defined as 0% ≤ substrate protein remaining % ≤ 80%)
- Degradation of substrate protein IKZF3 (substrate protein remaining %) (IKZF3): A (A is defined as 0% ≤ substrate protein remaining % ≤ 80%)
- Degradation of substrate protein CKla (substrate protein remaining %) (CK1a): B (B is defined as substrate protein remaining % > 80%)
- Degradation of substrate protein GSPT1 (substrate protein remaining %) (GSPT1): A (A is defined as 0% ≤ substrate protein remaining % ≤ 80%)
